Assays:
B. cereus ATCC 11778 = assay: NCCLS broth microdilution MIC, B. cereus; assay type: cell-based, Bacillus cereus; conditions: organism A = B. cereus ATCC 11778
Text: (§1) Compounds according to this invention were screened for their in vitro activities against selected species of bacteria and fungi. […]

C. albicans ATCC 38247 = assay: Antifungal MIC, C. albicans; assay type: cell-based, Candida albicans; conditions: organism B = C. albicans ATCC 38247
Text: as §1

E. faecalis ATCC 29212 = assay: NCCLS broth microdilution MIC, E. faecalis; assay type: cell-based; conditions: organism C = E. faecalis ATCC 29212
Text: as §1

S. aureus ATCC 13709 = assay: NCCLS broth microdilution MIC, S. aureus (MSSA); assay type: cell-based, Staphylococcus aureus; conditions: organism E = S. aureus ATCC 13709 (MSSA)
Text: as §1

S. aureus ATCC 27660 = assay: NCCLS broth microdilution MIC, S. aureus (MRSA); assay type: cell-based, Staphylococcus aureus; conditions: organism F = S. aureus ATCC 27660 (MRSA)
Text: as §1

S. pneumoniae ATCC 49619 = assay: NCCLS broth microdilution MIC, S. pneumoniae ATCC 49619; assay type: cell-based, Streptococcus pneumoniae; conditions: organism H = S. pneumoniae ATCC 49619
Text: as §1

[1] = system: methicillin resistant Staphylococcus aureus ATCC 33591; assay: Murine neutropenic thigh model; assay type: in vivo; conditions: thigh at 6 hr, neutropenic CF1 mice
Procedure: The suspension was diluted 1:100 in phosphate buffered saline (pH 7.2) for a final concentration of 10^6 cfu/mL.
Outbred female CF1 mice (approx. 20 gram body weight) were rendered neutropenic by treatment with cyclophosphamide (200 mg/kg body weight, intraperitoneal injection) at 2 and 4 days prior to inoculation. Groups of 5 mice were inoculated with 0.05 mL of the bacteria (approx. 10^6 cfu/mL) into the anterior thigh. Each group was treated intravenously two hours post infection with vehicle (phosphate buffered saline) or test compound. The mice were sacrificed at either 6 or 24 hrs after treatment and thighs were collected aseptically. Each thigh was weighed, placed into sterile saline, and homogenized. The tissue homogenates were diluted appropriately for plating on agar plates. Colony counts were recorded (cfu/gram) and compared to control groups.

E. faecium ATCC 51559 = assay: NCCLS broth microdilution MIC, E. faecium (VRE); assay type: cell-based, Enterococcus faecium; conditions: organism D = E. faecium ATCC 51559 (VRE)
Text: as §1

[2] = system: S. epidermidis ATCC 12228; assay: NCCLS broth microdilution MIC, S. epidermidis; assay type: cell-based, Staphylococcus epidermidis; conditions: organism G = S. epidermidis ATCC 12228
Text: as §1

S. pneumoniae ATCC 51422 = assay: NCCLS broth microdilution MIC, S. pneumoniae (PRSP); assay type: cell-based, Streptococcus pneumoniae; conditions: organism I = S. pneumoniae ATCC 51422 (PRSP)
Text: as §1

[3] = Staphylococcus aureus, read-out: Minimum Inhibitory Concentration (MIC)

Minimum Inhibitory Concentration (MIC) (B. cereus ATCC 11778) | Minimum Inhibitory Concentration (MIC) (C. albicans ATCC 38247) | Minimum Inhibitory Concentration (MIC) (E. faecalis ATCC 29212) | Minimum Inhibitory Concentration (MIC) (S. aureus ATCC 13709) | Minimum Inhibitory Concentration (MIC) (S. aureus ATCC 27660) | Minimum Inhibitory Concentration (MIC) (S. pneumoniae ATCC 49619) | Minimum Inhibitory Concentration (MIC) (E. faecium ATCC 51559) | Minimum Inhibitory Concentration (MIC) [2] | Minimum Inhibitory Concentration (MIC) (S. pneumoniae ATCC 51422) | MIC (B. cereus ATCC 11778; Bacillus cereus, ATCC11778, read-out: Minimum Inhibitory Concentration (MIC)) [µg/mL] | MIC (C. albicans ATCC 38247; Candida albicans, ATCC38247, read-out: Minimum Inhibitory Concentration (MIC)) [µg/mL] | MIC (E. faecalis ATCC 29212; Enterococcus faecalis, ATCC29212, read-out: Minimum Inhibitory Concentration (MIC)) [µg/mL] | MIC (E. faecium ATCC 51559; Enterococcus faecium, read-out: Minimum Inhibitory Concentration (MIC)) [µg/mL] | MIC (S. aureus ATCC 13709; [3]) [µg/mL] | MIC (S. aureus ATCC 27660; [3]) [µg/mL] | MIC ([2]; Staphylococcus epidermidis, ATCC12228, read-out: Minimum Inhibitory Concentration (MIC)) [µg/mL] | MIC (S. pneumoniae ATCC 49619; Streptococcus pneumoniae, ATCC49619, read-out: Minimum Inhibitory Concentration (MIC)) [µg/mL] | MIC (S. pneumoniae ATCC 51422; Streptococcus pneumoniae, read-out: Minimum Inhibitory Concentration (MIC)) [µg/mL] | SMILES | Colony Count (log cfu/gram), Compound ([1]; 25 mg/kg intravenously two hours post infection) [log cfu/gram] | Colony Count (log cfu/gram), Compound ([1]; 50 mg/kg intravenously two hours post infection) [log cfu/gram]
+++ (+++ = MIC ≦ 4) | >32 µg/mL | +++ (+++ = MIC ≦ 4) | +++ (+++ = MIC ≦ 4) | +++ (+++ = MIC ≦ 4) | +++ (+++ = MIC ≦ 4) | +++ (+++ = MIC ≦ 4) | +++ (+++ = MIC ≦ 4) | +++ (+++ = MIC ≦ 4) |  |  |  |  |  |  |  |  |  | Cn1cc(NC(=O)c2cc(NC(=O)c3cc(NC(=O)c4cc5ccccc5cn4)cn3C)c[nH]2)cc1C(=O)NCCc1ccccn1 [Ib-93] |  | 
+++ (+++ = MIC ≦ 4) | >32 µg/mL | +++ (+++ = MIC ≦ 4) | +++ (+++ = MIC ≦ 4) | +++ (+++ = MIC ≦ 4) | +++ (+++ = MIC ≦ 4) | +++ (+++ = MIC ≦ 4) | +++ (+++ = MIC ≦ 4) | +++ (+++ = MIC ≦ 4) |  |  |  |  |  |  |  |  |  | Cn1cc(NC(=O)c2ccc(NC(=O)c3cc(NC(=O)c4cc5ccccc5cn4)cn3C)cc2)cc1C(=O)NCCN1CCCCC1 [Ic-13] |  | 
+++ (+++ = MIC ≦ 4) | >32 µg/mL | +++ (+++ = MIC ≦ 4) | +++ (+++ = MIC ≦ 4) | +++ (+++ = MIC ≦ 4) | +++ (+++ = MIC ≦ 4) | +++ (+++ = MIC ≦ 4) | +++ (+++ = MIC ≦ 4) | +++ (+++ = MIC ≦ 4) |  |  |  |  |  |  |  |  |  | Cn1cc(NC(=O)c2cc(NC(=O)c3cc(NC(=O)c4cc5ccccc5cn4)cn3C)c[nH]2)cc1C(=O)NCCN1CCSCC1 [Ib-87] |  | 
 |  |  |  |  |  |  |  |  | < 4 | > 32 | < 4 | < 4 | < 4 | < 4 | < 4 | < 4 | < 4 | Cn1cc(NC(=O)c2ccc(NC(=O)c3cc(NC(=O)c4cc5ccccc5cn4)cn3C)cc2)cc1C(=O)NCCN1CCOCC1 [Ic-1] |  | 
+++ (+++ = MIC ≦ 4) | >32 µg/mL | +++ (+++ = MIC ≦ 4) | +++ (+++ = MIC ≦ 4) | +++ (+++ = MIC ≦ 4) | +++ (+++ = MIC ≦ 4) | +++ (+++ = MIC ≦ 4) | +++ (+++ = MIC ≦ 4) | +++ (+++ = MIC ≦ 4) |  |  |  |  |  |  |  |  |  | Cn1cc(NC(=O)c2ccc(NC(=O)c3cc(NC(=O)c4cc5ccccc5cn4)cn3C)cc2)cc1C(=O)NCCN1CCSCC1 [Ic-7] |  | 
+++ (+++ = MIC ≦ 4) | >32 µg/mL | +++ (+++ = MIC ≦ 4) | +++ (+++ = MIC ≦ 4) | +++ (+++ = MIC ≦ 4) | +++ (+++ = MIC ≦ 4) | +++ (+++ = MIC ≦ 4) | +++ (+++ = MIC ≦ 4) | +++ (+++ = MIC ≦ 4) |  |  |  |  |  |  |  |  |  | Cn1cc(NC(=O)c2ccc(NC(=O)c3cc(NC(=O)c4cc5ccccc5cn4)cn3C)cc2)cc1C(=O)NCCN1CCC(F)(F)CC1 [Ic-4] |  | 
+++ (+++ = MIC ≦ 4) | >32 µg/mL | +++ (+++ = MIC ≦ 4) | +++ (+++ = MIC ≦ 4) | +++ (+++ = MIC ≦ 4) | +++ (+++ = MIC ≦ 4) | +++ (+++ = MIC ≦ 4) | +++ (+++ = MIC ≦ 4) | +++ (+++ = MIC ≦ 4) |  |  |  |  |  |  |  |  |  | Cn1cc(NC(=O)c2cc(NC(=O)c3cc(NC(=O)c4cc5ccccc5cn4)cn3C)c[nH]2)cc1C(=O)NCCN1CCC(F)(F)CC1 [Ib-88] |  | 

Continued, compound first:

SMILES | Minimum Inhibitory Concentration (MIC) (B. cereus ATCC 11778) | Minimum Inhibitory Concentration (MIC) (C. albicans ATCC 38247) | Minimum Inhibitory Concentration (MIC) (E. faecalis ATCC 29212) | Minimum Inhibitory Concentration (MIC) (S. aureus ATCC 13709) | Minimum Inhibitory Concentration (MIC) (S. aureus ATCC 27660) | Minimum Inhibitory Concentration (MIC) (S. pneumoniae ATCC 49619) | Minimum Inhibitory Concentration (MIC) (E. faecium ATCC 51559) | Minimum Inhibitory Concentration (MIC) [2] | Minimum Inhibitory Concentration (MIC) (S. pneumoniae ATCC 51422) | MIC (B. cereus ATCC 11778; Bacillus cereus, ATCC11778, read-out: Minimum Inhibitory Concentration (MIC)) [µg/mL] | MIC (C. albicans ATCC 38247; Candida albicans, ATCC38247, read-out: Minimum Inhibitory Concentration (MIC)) [µg/mL] | MIC (E. faecalis ATCC 29212; Enterococcus faecalis, ATCC29212, read-out: Minimum Inhibitory Concentration (MIC)) [µg/mL] | MIC (E. faecium ATCC 51559; Enterococcus faecium, read-out: Minimum Inhibitory Concentration (MIC)) [µg/mL] | MIC (S. aureus ATCC 13709; [3]) [µg/mL] | MIC (S. aureus ATCC 27660; [3]) [µg/mL] | MIC ([2]; Staphylococcus epidermidis, ATCC12228, read-out: Minimum Inhibitory Concentration (MIC)) [µg/mL] | MIC (S. pneumoniae ATCC 49619; Streptococcus pneumoniae, ATCC49619, read-out: Minimum Inhibitory Concentration (MIC)) [µg/mL] | MIC (S. pneumoniae ATCC 51422; Streptococcus pneumoniae, read-out: Minimum Inhibitory Concentration (MIC)) [µg/mL] | Colony Count (log cfu/gram), Compound ([1]; 25 mg/kg intravenously two hours post infection) [log cfu/gram] | Colony Count (log cfu/gram), Compound ([1]; 50 mg/kg intravenously two hours post infection) [log cfu/gram]
Cn1cc(NC(=O)c2cc(NC(=O)c3cc(NC(=O)c4cc5ccccc5cn4)cn3C)c[nH]2)cc1C(=O)NCCN1CCOCC1 [Ib-67] | +++ (+++ = MIC ≦ 4) | >32 µg/mL | +++ (+++ = MIC ≦ 4) | +++ (+++ = MIC ≦ 4) | +++ (+++ = MIC ≦ 4) | +++ (+++ = MIC ≦ 4) |  |  |  |  |  |  |  |  |  |  |  |  | 6.61 | 5.79
Cn1cc(NC(=O)c2cc(NC(=O)c3cc(NC(=O)c4cc5ccccc5cn4)cn3C)c[nH]2)cc1C(=O)NCCN1CCCC1 [Ib-84] | +++ (+++ = MIC ≦ 4) | + (+ = 12 ≦ MIC ≦ 32) | +++ (+++ = MIC ≦ 4) | +++ (+++ = MIC ≦ 4) | +++ (+++ = MIC ≦ 4) | +++ (+++ = MIC ≦ 4) | +++ (+++ = MIC ≦ 4) | +++ (+++ = MIC ≦ 4) | +++ (+++ = MIC ≦ 4) |  |  |  |  |  |  |  |  |  |  | 
Cn1cc(NC(=O)c2cc3ccccc3cn2)cc1C(=O)Nc1cc(C(=O)Nc2c[nH]c(C(=O)NCCN3CCSCC3)c2)n(C)c1 [Ib-54] | +++ (+++ = MIC ≦ 4) | >32 µg/mL | +++ (+++ = MIC ≦ 4) | +++ (+++ = MIC ≦ 4) | +++ (+++ = MIC ≦ 4) | +++ (+++ = MIC ≦ 4) | +++ (+++ = MIC ≦ 4) | ++ (++ = 4 < MIC < 12) | +++ (+++ = MIC ≦ 4) |  |  |  |  |  |  |  |  |  |  | 
Cn1cc(NC(=O)c2cc(NC(=O)c3cc(NC(=O)c4cc5ccccc5cn4)c[nH]3)cn2C)cc1C(=O)NCCN1CCOCC1 [Ib-50] | +++ (+++ = MIC ≦ 4) | >32 µg/mL | +++ (+++ = MIC ≦ 4) | +++ (+++ = MIC ≦ 4) | +++ (+++ = MIC ≦ 4) | +++ (+++ = MIC ≦ 4) | +++ (+++ = MIC ≦ 4) | +++ (+++ = MIC ≦ 4) | +++ (+++ = MIC ≦ 4) |  |  |  |  |  |  |  |  |  |  | 
Cn1cc(NC(=O)c2cc(NC(=O)c3cc(NC(=O)c4cc5ccccc5cn4)c[nH]3)cn2C)cc1C(=O)NCCN1CCC(F)(F)CC1 [Ib-78] | +++ (+++ = MIC ≦ 4) | >32 µg/mL | +++ (+++ = MIC ≦ 4) | +++ (+++ = MIC ≦ 4) | +++ (+++ = MIC ≦ 4) | +++ (+++ = MIC ≦ 4) | +++ (+++ = MIC ≦ 4) | +++ (+++ = MIC ≦ 4) | +++ (+++ = MIC ≦ 4) |  |  |  |  |  |  |  |  |  |  | 
Cn1cc(NC(=O)c2cc3ccccc3cn2)cc1C(=O)Nc1cc(C(=O)Nc2cc(C(=O)NCCN3CCOCC3)ns2)n(C)c1 [Ib-52] | +++ (+++ = MIC ≦ 4) | >32 µg/mL | +++ (+++ = MIC ≦ 4) | +++ (+++ = MIC ≦ 4) | +++ (+++ = MIC ≦ 4) | +++ (+++ = MIC ≦ 4) | +++ (+++ = MIC ≦ 4) | +++ (+++ = MIC ≦ 4) | +++ (+++ = MIC ≦ 4) |  |  |  |  |  |  |  |  |  |  | 
